Assay results: BindingDB's records for doi:10.1021/acs.jmedchem.1c01681 (Second Military Medical University, 2021)

Assay: Inhibition of SARS-CoV-2 spike glycoprotein expressed in HEK293T cells transfected with pAAV-CAG-HnCovS-RFP assessed as inhibition of membrane fusion to Huh-7 cells expressing hACE2 measured after 4 hrs by cell-cell fusion based fluorescence assay

Molecule `CC[C@H](C)[C@H](NC(=O)CNC(=O)[C@H](CO)NC(=O)[C@@H](NC(=O)[C@H](CC(=O)O)NC(C)=O)[C@@H](C)CC)C(=O)N[C@@H](CC(N)=O)C(=O)N[C@@H](C)C(=O)N[C@@H](CO)C(=O)N[C@H](C(=O)N[C@H](C(=O)N[C@@H](CC(N)=O)C(=O)N[C@H](C(=O)N[C@@H](CCC(N)=O)C(=O)N[C@@H](CCCCN)C(=O)N[C@@H](CCC(=O)O)C(=O)N[C@H](C(=O)N[C@@H](CC(=O)O)C(=O)N[C@@H](CCCNC(=N)N)C(=O)N[C@@H](CC(C)C)C(=O)N[C@@]1(C)CCCC=CCCC[C@@](C)(C(=O)N[C@@H](CC(N)=O)C(=O)N[C@@H](CC(C)C)C(=O)N[C@@H](CC(N)=O)C(=O)N[C@@H](CCC(=O)O)C(=O)N[C@@H](CO)C(=O)N[C@@H](CC(C)C)C(=O)N[C@H](C(=O)N[C@@H](CC(=O)O)C(=O)N[C@@H](CC(C)C)C(=O)N[C@@H](CCC(N)=O)C(=O)N[C@@H](CCC(=O)O)C(=O)N[C@@H](CC(C)C)C(N)=O)[C@@H](C)CC)NC(=O)[C@H](C)NC(=O)[C@H](C(C)C)NC(=O)[C@H](CCC(=O)O)NC1=O)[C@@H](C)CC)[C@@H](C)CC)C(C)C)C(C)C` has an EC50 of 5 µM.
